Measured values published in patent EP4755384A1, “PHARMACEUTICAL COMPOSITION CONTAINING ANDROGEN RECEPTOR INHIBITOR/ANTAGONIST, METHOD AND USE” (Suzhou Kintor Pharmaceuticals, Inc., priority 2023, dated 2025).

Assays:
mice [1] = assay: In-vivo efficacy experiment 2: hair scoring in depilated mice given DHT; design: key: 0 = no skin darkening, 5 = complete hair growth
Protocol: (§1) 120 mice were deeply anesthetized. First, the hair on the back of the mice was shaved off with an animal hair clipper. Then, depilatory cream (Veet, https://item.jd.com/6291245.html) was evenly applied to the skin surface of the mice. After leaving it for 7-10 minutes, the remaining hair was gently scraped off against the hair growth direction with a depilatory spatula. Finally, the residual depilatory cream on the skin surface was thoroughly washed off with a wet wipe to avoid skin burns in the mice.
(§2) DHT and test substances (compound of formula I and minoxidil) were administered starting on the day following depilation, which was recorded as Day 1 (the day of depilation was recorded as Day 0). 86 mice in good condition were randomly selected and assigned to each group.
(§3) The main observation indicators of this experiment are shown in FIG. 12 (literature on hair scoring: Biomolecules & Therapeutics, 17(3), 241-248 (2009)), which is described as follows: (Score 0: No darkening of skin colour observed in any areas; Score 1: Darkening of skin area from greyish to black; Score 2: Visible short hairs; Score 3: Sparse hairs; Score 4: Dense hairs; Score 5: Complete hair growth). After depilation, the mice were photographed and scored three times a week until the end of the experiment. Table 4 Experimental grouping
(§4) According to the grouping in Table 4, and the corresponding administration dose, test substance concentration and administration volume, […] above experimental design and methods. For groups G6, G7 and G8, which received a combined administration of the compound of formula I and minoxidil, one drug was administered first followed by the other, with the administration interval between the two drugs not exceeding 1 minute.
(§5) Starting from the first day of administration, body weight was weighed and recorded twice a week, and hair regrowth (anagen) scoring and photography were performed […], until the end of the experiment. Scoring was conducted according to the criteria described in the experimental design.

mice [2] = assay: In-vivo efficacy experiment 1: hair scoring in depilated mice given DHT; design: key: 0 = no skin darkening, 5 = complete hair growth
Protocol: as §1, with “100” for “120”
as §3, with “experiment.” for “experiment. Table 4 Experimental grouping”
as §1, with “100” for “120”, “cream” for “cream (Veet, https://item.jd.com/6291245.html)”
as §2, with “64” for “86”, “group. Table 1 Experimental grouping” for “group.”
as §4, with “1,” for “4,”, “groups” for “groups G6,”
as §5

[3] = Day 11, minoxidil 5% (50 mg/mL) 150 µL topical QD, DHT 30 mg/kg subcutaneous QD
[4] = Day 21, minoxidil 5% (50 mg/mL) 150 µL topical QD, DHT 30 mg/kg subcutaneous QD
[5] = Day 11, compound of formula I 0.5% (5 mg/mL) 150 µL topical QD, DHT 30 mg/kg subcutaneous QD
[6] = Day 21, compound of formula I 0.5% (5 mg/mL) 150 µL topical QD, DHT 30 mg/kg subcutaneous QD
[7] = Day 11, DHT model group: DHT 30 mg/kg subcutaneous injection QD + vehicle topical
[8] = Day 21, DHT model group: DHT 30 mg/kg subcutaneous injection QD + vehicle topical

Nc1cc(N2CCCCC2)nc(N)[n+]1[O-] [minoxidil, Minoxidil]
Hair scoring in mice (mice [1]; Day 8, minoxidil 5% (50 mg/mL) 150 µL topical QD, DHT 30 mg/kg subcutaneous QD): 0.00 | Hair scoring in mice (mice [1]; [3]): 0.25 | Hair scoring in mice (mice [1]; Day 15, minoxidil 5% (50 mg/mL) 150 µL topical QD, DHT 30 mg/kg subcutaneous QD): 1.25 | Hair scoring in mice (mice [1]; Day 17, minoxidil 5% (50 mg/mL) 150 µL topical QD, DHT 30 mg/kg subcutaneous QD): 1.88 | Hair scoring in mice (mice [1]; Day 19, minoxidil 5% (50 mg/mL) 150 µL topical QD, DHT 30 mg/kg subcutaneous QD): 2.63 | Hair scoring in mice (mice [1]; [4]): 2.75 | Hair scoring in mice, Score (mice [2]; Day 7, minoxidil 2% (20 mg/mL) 150 µL topical QD, DHT 30 mg/kg subcutaneous QD): 0.00 | Hair scoring in mice, Score (mice [2]; Day 7, minoxidil 5% (50 mg/mL) 150 µL topical QD, DHT 30 mg/kg subcutaneous QD): 0.13 | Hair scoring in mice, Score (mice [2]; Day 9, minoxidil 2% (20 mg/mL) 150 µL topical QD, DHT 30 mg/kg subcutaneous QD): 0.29 | Hair scoring in mice, Score (mice [2]; Day 9, minoxidil 5% (50 mg/mL) 150 µL topical QD, DHT 30 mg/kg subcutaneous QD): 0.25 | Hair scoring in mice, Score (mice [2]; Day 11, minoxidil 2% (20 mg/mL) 150 µL topical QD, DHT 30 mg/kg subcutaneous QD): 0.57 | Hair scoring in mice, Score (mice [2]; [3]): 0.38 | Hair scoring in mice, Score (mice [2]; Day 14, minoxidil 2% (20 mg/mL) 150 µL topical QD, DHT 30 mg/kg subcutaneous QD): 0.86 | Hair scoring in mice, Score (mice [2]; Day 14, minoxidil 5% (50 mg/mL) 150 µL topical QD, DHT 30 mg/kg subcutaneous QD): 1.00 | Hair scoring in mice, Score (mice [2]; Day 16, minoxidil 2% (20 mg/mL) 150 µL topical QD, DHT 30 mg/kg subcutaneous QD): 1.14 | Hair scoring in mice, Score (mice [2]; Day 16, minoxidil 5% (50 mg/mL) 150 µL topical QD, DHT 30 mg/kg subcutaneous QD): 1.75 | Hair scoring in mice, Score (mice [2]; Day 18, minoxidil 2% (20 mg/mL) 150 µL topical QD, DHT 30 mg/kg subcutaneous QD): 1.86 | Hair scoring in mice, Score (mice [2]; Day 18, minoxidil 5% (50 mg/mL) 150 µL topical QD, DHT 30 mg/kg subcutaneous QD): 2.63 | Hair scoring in mice, Score (mice [2]; Day 21, minoxidil 2% (20 mg/mL) 150 µL topical QD, DHT 30 mg/kg subcutaneous QD): 2.29 | Hair scoring in mice, Score (mice [2]; [4]): 3.13 | Hair scoring in mice, Score (mice [2]; Day 23, minoxidil 2% (20 mg/mL) 150 µL topical QD, DHT 30 mg/kg subcutaneous QD): 2.71 | Hair scoring in mice, Score (mice [2]; Day 23, minoxidil 5% (50 mg/mL) 150 µL topical QD, DHT 30 mg/kg subcutaneous QD): 3.50

COc1c(C#N)ccc(N2C(=O)C(C)(C)N(c3ccc(C)nc3)C2=S)c1F [compound of formula I, 4-(4,4-dimethyl-3-(6-methylpyridin-3-yl)-5-oxo-2-thioxoimidazolidin-1-yl)-3-fluoro-2-methoxybenzonitrile]
Hair scoring in mice (mice [1]; Day 8, compound of formula I 0.25% (2.5 mg/mL) 150 µL topical QD, DHT 30 mg/kg subcutaneous QD): 0.00 | Hair scoring in mice (mice [1]; Day 8, compound of formula I 0.5% (5 mg/mL) 150 µL topical QD, DHT 30 mg/kg subcutaneous QD): 0.00 | Hair scoring in mice (mice [1]; Day 11, compound of formula I 0.25% (2.5 mg/mL) 150 µL topical QD, DHT 30 mg/kg subcutaneous QD): 0.00 | Hair scoring in mice (mice [1]; [5]): 0.00 | Hair scoring in mice (mice [1]; Day 15, compound of formula I 0.25% (2.5 mg/mL) 150 µL topical QD, DHT 30 mg/kg subcutaneous QD): 0.60 | Hair scoring in mice (mice [1]; Day 15, compound of formula I 0.5% (5 mg/mL) 150 µL topical QD, DHT 30 mg/kg subcutaneous QD): 0.90 | Hair scoring in mice (mice [1]; Day 17, compound of formula I 0.25% (2.5 mg/mL) 150 µL topical QD, DHT 30 mg/kg subcutaneous QD): 1.00 | Hair scoring in mice (mice [1]; Day 17, compound of formula I 0.5% (5 mg/mL) 150 µL topical QD, DHT 30 mg/kg subcutaneous QD): 1.40 | Hair scoring in mice (mice [1]; Day 19, compound of formula I 0.25% (2.5 mg/mL) 150 µL topical QD, DHT 30 mg/kg subcutaneous QD): 1.40 | Hair scoring in mice (mice [1]; Day 19, compound of formula I 0.5% (5 mg/mL) 150 µL topical QD, DHT 30 mg/kg subcutaneous QD): 1.70 | Hair scoring in mice (mice [1]; Day 21, compound of formula I 0.25% (2.5 mg/mL) 150 µL topical QD, DHT 30 mg/kg subcutaneous QD): 1.80 | Hair scoring in mice (mice [1]; [6]): 2.20 | Hair scoring in mice, Score (mice [2]; Day 7, compound of formula I 0.5% (5 mg/mL) 150 µL topical QD, DHT 30 mg/kg subcutaneous QD): 0.00 | Hair scoring in mice, Score (mice [2]; Day 7, compound of formula I 1.0% (10 mg/mL) 150 µL topical QD, DHT 30 mg/kg subcutaneous QD): 0.00 | Hair scoring in mice, Score (mice [2]; Day 9, compound of formula I 0.5% (5 mg/mL) 150 µL topical QD, DHT 30 mg/kg subcutaneous QD): 0.13 | Hair scoring in mice, Score (mice [2]; Day 9, compound of formula I 1.0% (10 mg/mL) 150 µL topical QD, DHT 30 mg/kg subcutaneous QD): 0.13 | Hair scoring in mice, Score (mice [2]; [5]): 0.38 | Hair scoring in mice, Score (mice [2]; Day 11, compound of formula I 1.0% (10 mg/mL) 150 µL topical QD, DHT 30 mg/kg subcutaneous QD): 0.13 | Hair scoring in mice, Score (mice [2]; Day 14, compound of formula I 0.5% (5 mg/mL) 150 µL topical QD, DHT 30 mg/kg subcutaneous QD): 0.88 | Hair scoring in mice, Score (mice [2]; Day 14, compound of formula I 1.0% (10 mg/mL) 150 µL topical QD, DHT 30 mg/kg subcutaneous QD): 0.38 | Hair scoring in mice, Score (mice [2]; Day 16, compound of formula I 0.5% (5 mg/mL) 150 µL topical QD, DHT 30 mg/kg subcutaneous QD): 1.13 | Hair scoring in mice, Score (mice [2]; Day 16, compound of formula I 1.0% (10 mg/mL) 150 µL topical QD, DHT 30 mg/kg subcutaneous QD): 1.00 | Hair scoring in mice, Score (mice [2]; Day 18, compound of formula I 0.5% (5 mg/mL) 150 µL topical QD, DHT 30 mg/kg subcutaneous QD): 1.75 | Hair scoring in mice, Score (mice [2]; Day 18, compound of formula I 1.0% (10 mg/mL) 150 µL topical QD, DHT 30 mg/kg subcutaneous QD): 1.38 | Hair scoring in mice, Score (mice [2]; [6]): 2.25 | Hair scoring in mice, Score (mice [2]; Day 21, compound of formula I 1.0% (10 mg/mL) 150 µL topical QD, DHT 30 mg/kg subcutaneous QD): 1.88 | Hair scoring in mice, Score (mice [2]; Day 23, compound of formula I 0.5% (5 mg/mL) 150 µL topical QD, DHT 30 mg/kg subcutaneous QD): 2.50 | Hair scoring in mice, Score (mice [2]; Day 23, compound of formula I 1.0% (10 mg/mL) 150 µL topical QD, DHT 30 mg/kg subcutaneous QD): 2.38

C[C@]12CCC(=O)C[C@@H]1CC[C@@H]1[C@@H]2CC[C@]2(C)[C@@H](O)CC[C@@H]12 [DHT, Dihydrotestosterone]
Hair scoring in mice (mice [1]; Day 8, DHT model group: DHT 30 mg/kg subcutaneous injection QD + vehicle topical): 0.00 | Hair scoring in mice (mice [1]; [7]): 0.00 | Hair scoring in mice (mice [1]; Day 15, DHT model group: DHT 30 mg/kg subcutaneous injection QD + vehicle topical): 0.40 | Hair scoring in mice (mice [1]; Day 17, DHT model group: DHT 30 mg/kg subcutaneous injection QD + vehicle topical): 0.50 | Hair scoring in mice (mice [1]; Day 19, DHT model group: DHT 30 mg/kg subcutaneous injection QD + vehicle topical): 0.90 | Hair scoring in mice (mice [1]; [8]): 1.10 | Hair scoring in mice, Score (mice [2]; Day 7, DHT model group: DHT 30 mg/kg subcutaneous injection QD + vehicle topical): 0.00 | Hair scoring in mice, Score (mice [2]; Day 9, DHT model group: DHT 30 mg/kg subcutaneous injection QD + vehicle topical): 0.00 | Hair scoring in mice, Score (mice [2]; [7]): 0.13 | Hair scoring in mice, Score (mice [2]; Day 14, DHT model group: DHT 30 mg/kg subcutaneous injection QD + vehicle topical): 0.38 | Hair scoring in mice, Score (mice [2]; Day 16, DHT model group: DHT 30 mg/kg subcutaneous injection QD + vehicle topical): 0.63 | Hair scoring in mice, Score (mice [2]; Day 18, DHT model group: DHT 30 mg/kg subcutaneous injection QD + vehicle topical): 1.25 | Hair scoring in mice, Score (mice [2]; [8]): 1.75 | Hair scoring in mice, Score (mice [2]; Day 23, DHT model group: DHT 30 mg/kg subcutaneous injection QD + vehicle topical): 2.13
